# Measurements published in publication PMC5905120, “An innovative immunotherapeutic strategy for ovarian cancer: CLEC10A and glycomimetic peptides” (Journal for Immunotherapy of Cancer, 2018).
# Bridges are numbered along the chain shown (N, C = ends). Roman numbers before positions name the chains, in order. Where no end group is shown, it is not given here.
# Columns and labels:
# [1] = tested on: serum cytokines/chemokines (mouse L-308 membrane array); assay: Serum cytokine array, healthy Balb/c mice; assay type: in vivo, mouse (Balb/c)
# Protocol: Ratios of treated vs. untreated samples obtained in a separate experiment with healthy Balb/c mice are shown in the right-hand column of Table 3 for comparison. The most significant increase in the serum of healthy mice treated with the peptide was in the amount of soluble HVEM (Herpes virus entry mediator, also designated TNFRSF14), which was a prominent protein in serum and increased approximately 10-fold within 4 h after treatment. In the tumor-bearing mice, the level of soluble HVEM in treated animals was similar to that in treated healthy mice, but the level in untreated animals was higher than that in healthy control mice.
# CLEC9A = assay: Solid-phase binding to CLEC9A; parameters: species or system human; conditions: Fig. 2b
# Protocol: Solid-phase binding assays were performed with streptavidin-, protein A/G-, or Nickel-coated microtiter plates (Pierce). His-tagged or Fc-fusion recombinant receptors (R&D Systems, Minneapolis, MN) were reconstituted in PBS. Sufficient receptors were added to wells to saturate the coating. His-tagged receptors were added to each well at a 5-fold excess over the stated capacity of the Ni coating to minimize non-specific binding of the peptide. Wells were washed three times with binding buffer (25 mM Tris HCl, pH 7.4, 150 mM NaCl, 0.05% Tween-20) to remove unbound receptor and 50 μL of 2 μM biotinylated peptide in binding buffer were added and allowed to incubate for 1 h. The wells were washed four times with binding buffer and then incubated with 50 μL of 1 μg/mL streptavidin conjugated with peroxidase (Sigma-Aldrich) for 1 h. […] After several minutes to allow color development, the reaction was stopped with 50 μL 1 M H3PO4 and absorbance was measured at 450 nm. Bound streptavidin was quantitated by the specific activity of peroxidase (absorbance/ng protein conjugate/min) under the conditions of the assay.
# Solid-phase binding assays were performed with recombinant human receptors. […] After extensive washing, the bound receptor was measured by peroxidase conjugated to a receptor-specific antibody. […]
# [2] = tested on: peritoneal cells of C57BL/6 mice; assay: Peritoneal immune cell populations by flow cytometry, C57BL/6 mice; assay type: in vivo, mouse (C57BL/6)
# Protocol: Healthy C57BL/6 male mice, 10 weeks old, were injected subcutaneously with peptides on alternate days. Peritoneal cells were isolated from mice 24 h after dosing by injecting ice cold PBS (containing 3% FBS) into the peritoneal cavity, gently massaging the abdomen, and then collecting the fluid, which was transferred into K2EDTA-treated tubes for evaluation of specific biomarkers. Cells from three mice in each group were pooled, counted and divided among FACS tubes (1 × 10^6 cells per tube). Cells were washed once in PBS containing 3% FBS, then stained with 0.25 to 1 μg of fluorescently conjugated antibody per 10^6 cells in 100 μL of buffer as recommended by the manufacturer (Table 2).
# Cells were incubated with the antibodies for 30 min at 4 °C in the dark. Following staining, the cells were washed two times with PBS/3% FBS and immediately analyzed with a MACSQuant flow cytometer (Miltenyi Biotech, Inc., San Diego, CA). Compensation was performed using single stain tubes for each color present in the analysis as well as an unstained control sample. Collection of flow cytometric data and analysis with FlowJo software, version 10.0.6 (FlowJo, LLC, Ashland, OR) were performed by Biomodels LLC (Watertown, MA).
# To examine whether increases occurred in mature immune cells, peritoneal cells from Balb/c and C57BL/6 mice were analyzed by flow cytometry after cells were stained with the markers listed in Table 2. […] To explore this observation more extensively, svL4 or sv6D was injected into C57BL/6 mice on day 0, 2 or 4. Peritoneal cells were examined by flow cytometry 24 h after each injection. Shown in Fig. 5 are results expressed as cell counts for F4/80 CD11b CD86 (mature, active macrophages); CD11c (DCs); CD11c CD 86 (activated DCs); CD4 CD69 (activated T cells); CD8 CD69 (activated cytotoxic T cells); NK1.1 CD3^+ CD69 (activated NKT cells); NK1.1 CD3^− CD69 (activated NK cells); CD19 (B cells); and CD19 CD73 CD80 CD273 (memory B cells). The numbers of these mature, activated cells continued to increase with each injection.
# Fig. 5 Expansion of peritoneal cells in C57BL/6 mice. Mice were injected subcutaneously at a dose of 1 nmole/g body weight of svL4, sv6D or svC1. Cells in each population recovered in a peritoneal lavage are expressed as cell counts (in thousands). Cells from three mice in each treatment group were pooled for analysis. The number of cells in each population was normalized to the average recovery of total cells from all groups. For each cell type, the left-hand, middle and right-hand set of bars represent samples from mice treated with svL4, sv6D or svC1, respectively. Mice were injected on days 0, 2 and 4, and cells were collected 24 h after each injection. Day 1, open bar; day 3, grey bar; day 5, black bar. Populations that express activation markers are indicated by an asterisk
# [3] = healthy mice, separate experiment, three animals pooled
# [4] = healthy mice, separate experiment, three animals pooled, * control value negligible or low
substance,measurement,setting,value
"I: VQATQSNQHTPRGGGSKK-NH2 / II: VQATQSNQHTPRGGGSK / III: VQATQSNQHTPRGGGS / IV: VQATQSNQHTPRGGGS (amide I:17-IV:C, I:18-II:C, II:17-III:C) [svL4]",ratio treated/untreated serum CCL1,[1]; [3],No change
same,ratio treated/untreated serum IFN-γ,[1]; [3],No change
same,ratio treated/untreated serum IL-1α,[1]; [3],0.86
same,ratio treated/untreated serum IL-12p70,[1]; [3],No change
same,ratio treated/untreated serum IL-16,[1]; [3],0.57
same,ratio treated/untreated serum IL-27,[1]; [3],0.55
same,ratio treated/untreated serum Lymphotactin,[1]; [3],2.6
same,ratio treated/untreated serum Lymphotoxin-α,[1]; [3],0.74
same,ratio treated/untreated serum MIP-2/CXCL2,[1]; [3],No change
same,ratio treated/untreated serum Pentraxin3,[1]; [3],0.21
same,ratio treated/untreated serum SPARC,[1]; [3],No change
same,ratio treated/untreated serum TIMP-2,[1]; [3],0.45
same,ratio treated/untreated serum TLR2,[1]; [3],0.37
same,ratio treated/untreated serum TNFα,[1]; [3],0.21
same,ratio treated/untreated serum sHVEM,[1]; [3],10
same,ratio treated/untreated serum IL-28,[1]; [4],High*
same,ratio treated/untreated serum IL-31,[1]; [4],High*
same,increase of soluble HVEM in serum,[1]; within 4 h after treatment,approximately 10 fold
same,binding to CLEC9A,CLEC9A,did not bind significantly
same,decrease of CD90.2^+ cells as small-cell population increased,[2]; 0.05 nmole/g svL4,more than 50%
same,response of CD19^+ B cells vs. sv6D,"[2]; 1 nmole/g s.c. on days 0, 2, 4, Fig. 5",responded more strongly to svL4
same,increase in mature immune cells,"[2]; 1 nmole/g s.c., single vs. second injection, 24 h",a significant increase occurred only after the second injection
same,Lin/CD90.2 status of small cells,[2]; 0.1 or 0.5 nmole/g svL4,nearly all cells were Lin^Neg and CD90.2^Neg
same,increase in mature immune cells,[2]; within 24 h after an injection (data not shown),Essentially no increase
same,"small cells (low FSc, low SSc)","[2]; within 24 h after injection, healthy C57BL/6, Fig. S1a",several-fold increase
